# According to US20170334899A1, “AMINO-SUBSTITUTED ISOTHIAZOLES” (Bayer Pharma Aktiengesellschaft, priority 2014, published 2017):
# pIC50: −log10 of the molar value.
# System: HeLa
# Assay: Proliferation assay (crystal violet), HeLa
# Assay type: cell-based
# Settings: Homo sapiens, HeLa, 96 h, HeLa cells; 4 days incubation; crystal violet staining; read-out: IC50 inhibition of proliferation, HeLa
# In short: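 Four-day compound exposure (0.001-10 μM, 0.5% DMSO final) began 24 h after seeding 1000-5000 cells/well in medium with 10% fetal calf serum. Cell number read by crystal violet absorbance at 595 nm, scaled between day-zero plate and untreated control; 4-parameter fit gave IC50.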
row,pIC50,Compound
1,6.43,"Cc1nsc(Nc2cnc(C(F)(F)F)cn2)c1C(=O)Nc1ccc(OC[C@@H]2CCCN(CCC(F)(F)F)C2)nc1 [Example 377, 3-methyl-5-{[5-(trifluoromethyl)pyrazin-2-yl]amino}-N-(6-{[(3R)-1-(3,3,3-trifluoropropyl)piperidin-3-yl]methoxy}pyridin-3-yl)-1,2-thiazole-4-carboxamide]"
2,6.44,"Cc1nsc(Nc2cnc(C(F)(F)F)cn2)c1C(=O)Nc1ccc(OCC2CCCN(CCC(F)(F)F)C2)nc1 (stereo not drawn) [Example 328, 3-methyl-5-{[5-(trifluoromethyl)pyrazin-2-yl]amino}-N-(6-{[1-(3,3,3-trifluoropropyl)piperidin-3-yl]methoxy}pyridin-3-yl)-1,2-thiazole-4-carboxamide]"
3,6.46,"Cc1nsc(Nc2cnc(C(F)(F)F)cn2)c1C(=O)Nc1ccc(O[C@@H]2CCN(CCC(F)(F)F)C[C@H]2F)nc1 [Example 368, N-(6-{[(3R,4R)-3-fluoro-1-(3,3,3-trifluoropropyl)piperidin-4-yl]oxy}pyridin-3-yl)-3-methyl-5-{[5-(trifluoromethyl)pyrazin-2-yl]amino}-1,2-thiazole-4-carboxamide]"
4,6.48,"Cc1nsc(Nc2cnc(C(F)(F)F)cn2)c1C(=O)Nc1ccc(OCCCN(C)CC(F)F)nc1 [Example 353, N-(6-{3-[(2,2-difluoroethyl)(methyl)amino]propoxy}pyridin-3-yl)-3-methyl-5-{[5-(trifluoromethyl)pyrazin-2-yl]amino}-1,2-thiazole-4-carboxamide]"
5,6.52,"Cc1nsc(Nc2cnc(C(F)(F)F)cn2)c1C(=O)Nc1ccc(O[C@@H]2CCN(CC(F)(F)F)C[C@H]2F)nc1 [Example 367, N-(6-{[(3R,4R)-3-fluoro-1-(2,2,2-trifluoroethyl)piperidin-4-yl]oxy}pyridin-3-yl)-3-methyl-5-{[5-(trifluoromethyl)pyrazin-2-yl]amino}-1,2-thiazole-4-carboxamide]"
6,6.00,"Cc1nsc(Nc2cnc(C(F)(F)F)cn2)c1C(=O)Nc1ccc(OCC2CCN(CCF)CC2)nc1 [Example 344, N-(6-{[1-(2-fluoroethyl)piperidin-4-yl]methoxy}pyridin-3-yl)-3-methyl-5-{[5-(trifluoromethyl)pyrazin-2-yl]amino}-1,2-thiazole-4-carboxamide]"
7,6.47,"Cc1nsc(Nc2cnc(C(F)(F)F)cn2)c1C(=O)Nc1ccc(O[C@H]2CCN(CCC(F)(F)F)C2)nc1 [Example 384, 3-methyl-5-{[5-(trifluoromethyl)pyrazin-2-yl]amino}-N-(6-{[(3S)-1-(3,3,3-trifluoropropyl)pyrrolidin-3-yl]oxy}pyridin-3-yl)-1,2-thiazole-4-carboxamide]"
8,6.39,"Cc1nsc(Nc2cnc(C(F)(F)F)cn2)c1C(=O)Nc1ccc(O[C@@H]2CCN(CCC(F)(F)F)C2)nc1 [Example 381, 3-methyl-5-{[5-(trifluoromethyl)pyrazin-2-yl]amino}-N-(6-{[(3R)-1-(3,3,3-trifluoropropyl)pyrrolidin-3-yl]oxy}pyridin-3-yl)-1,2-thiazole-4-carboxamide]"
9,6.51,"Cc1nsc(Nc2cnc(C(F)(F)F)cn2)c1C(=O)Nc1ccc(O[C@H]2CCCN(CC(F)(F)F)C2)nc1 [Example 389, 3-methyl-N-(6-{[(3S)-1-(2,2,2-trifluoroethyl)piperidin-3-yl]oxy}pyridin-3-yl)-5-{[5-(trifluoromethyl)pyrazin-2-yl]amino}-1,2-thiazole-4-carboxamide]"
10,6.41,"CCN1CC[C@@H](Oc2ccc(NC(=O)c3c(C)nsc3Nc3cnc(C(F)(F)F)cn3)cn2)[C@H](F)C1 [Example 369, N-(6-{[(3R,4R)-1-ethyl-3-fluoropiperidin-4-yl]oxy}pyridin-3-yl)-3-methyl-5-{[5-(trifluoromethyl)pyrazin-2-yl]amino}-1,2-thiazole-4-carboxamide]"
11,6.48,"Cc1nsc(Nc2cnc(C(F)(F)F)cn2)c1C(=O)Nc1ccc(OCCCN(C)CCC(F)(F)F)nc1 [Example 355, 3-methyl-N-(6-{3-[methyl(3,3,3-trifluoropropyl)amino]propoxy}pyridin-3-yl)-5-{[5-(trifluoromethyl)pyrazin-2-yl]amino}-1,2-thiazole-4-carboxamide]"
12,6.31,"Cc1nsc(Nc2cnc(C(F)(F)F)cn2)c1C(=O)Nc1ccc(OCC2CCN(CC(F)(F)F)CC2(F)F)nc1 (stereo not drawn) [Example 392, N-(6-{[3,3-difluoro-1-(2,2,2-trifluoroethyl)piperidin-4-yl]methoxy}pyridin-3-yl)-3-methyl-5-{[5-(trifluoromethyl)pyrazin-2-yl]amino}-1,2-thiazole-4-carboxamide]"
13,6.33,"Cc1nsc(Nc2cnc(C(F)(F)F)cn2)c1C(=O)Nc1ccc(F)c(OC[C@@H]2CCCN(CC(F)(F)F)C2)c1 [Example 342, N-(4-fluoro-3-{[(3R)-1-(2,2,2-trifluoroethyl)piperidin-3-yl]methoxy}phenyl)-3-methyl-5-{[5-(trifluoromethyl)pyrazin-2-yl]amino}-1,2-thiazole-4-carboxamide]"
14,6.37,"CCN1CCC(COc2ccc(NC(=O)c3c(C)nsc3Nc3cnc(C(F)(F)F)cn3)cn2)C(F)(F)C1 (stereo not drawn) [Example 393, N-{6-[(1-ethyl-3,3-difluoropiperidin-4-yl)methoxy]pyridin-3-yl}-3-methyl-5-{[5-(trifluoromethyl)pyrazin-2-yl]amino}-1,2-thiazole-4-carboxamide]"
15,6.51,"Cc1nsc(Nc2cnc(C(F)(F)F)cn2)c1C(=O)Nc1ccc(OC[C@@H]2CCCN(CC(F)(F)F)C2)nc1 [Example 376, 3-methyl-N-(6-{[(3R)-1-(2,2,2-trifluoroethyl)piperidin-3-yl]methoxy}pyridin-3-yl)-5-{[5-(trifluoromethyl)pyrazin-2-yl]amino}-1,2-thiazole-4-carboxamide]"
16,6.54,"Cc1nsc(Nc2cnc(C(F)(F)F)cn2)c1C(=O)Nc1ccc(O[C@H]2CCN(CCC(F)(F)F)C[C@@H]2F)nc1 [Example 364, N-(6-{[(3S,4S)-3-fluoro-1-(3,3,3-trifluoropropyl)piperidin-4-yl]oxy}pyridin-3-yl)-3-methyl-5-{[5-(trifluoromethyl)pyrazin-2-yl]amino}-1,2-thiazole-4-carboxamide]"
17,6.31,"Cc1nsc(Nc2cnc(C(F)(F)F)cn2)c1C(=O)Nc1ccc(F)c(OC[C@H]2CCN(CC(F)(F)F)C2)c1 [Example 398, N-(4-fluoro-3-{[(3S)-1-(2,2,2-trifluoroethyl)pyrrolidin-3-yl]methoxy}phenyl)-3-methyl-5-{[5-(trifluoromethyl)pyrazin-2-yl]amino}-1,2-thiazole-4-carboxamide]"
18,6.00,"Cc1nsc(Nc2cnc(C(F)(F)F)cn2)c1C(=O)Nc1ccc(OCCN(C)CCF)nc1 [Example 348, N-(6-{2-[(2-fluoroethyl)(methyl)amino]ethoxy}pyridin-3-yl)-3-methyl-5-{[5-(trifluoromethyl)pyrazin-2-yl]amino}-1,2-thiazole-4-carboxamide]"
19,6.43,"Cc1nsc(Nc2cnc(C(F)(F)F)cn2)c1C(=O)Nc1ccc(OCC2CCCN(CC(F)F)C2)nc1 (stereo not drawn) [Example 327, N-(6-{[1-(2,2-difluoroethyl)piperidin-3-yl]methoxy}pyridin-3-yl)-3-methyl-5-{[5-(trifluoromethyl)pyrazin-2-yl]amino}-1,2-thiazole-4-carboxamide]"
20,5.51,"Cc1nsc(Nc2cc(C#N)ccn2)c1C(=O)Nc1ccc(OC2CCCN(C(=O)OC(C)(C)C)C2)nc1 (stereo not drawn) [Example 34, tert-Butyl 3({5-[({5-[(4-cyanopyridin-2-yl)amino]-3-methyl-1,2-thiazol-4-yl}-carbonyl)amino]pyridin-2-yl}oxy)piperidine-1-carboxylate]"
21,6.42,"Cc1nsc(Nc2cnc(C(F)(F)F)cn2)c1C(=O)Nc1ccc(F)c(OC[C@@H]2CCN(CC(F)(F)F)C2)c1 [Example 339, N-(4-fluoro-3-{[(3R)-1-(2,2,2-trifluoroethyl)pyrrolidin-3-yl]methoxy}phenyl)-3-methyl-5-{[5-(trifluoromethyl)pyrazin-2-yl]amino}-1,2-thiazole-4-carboxamide]"
22,6.34,"CCCCN1CCC(COc2ccc(NC(=O)c3c(C)nsc3Nc3cnc(C(F)(F)F)cn3)cn2)C(F)(F)C1 (stereo not drawn) [Example 396, N-{6-[(1-butyl-3,3-difluoropiperidin-4-yl)methoxy]pyridin-3-yl}-3-methyl-5-{[5-(trifluoromethyl)pyrazin-2-yl]amino}-1,2-thiazole-4-carboxamide]"
23,6.02,"Cc1nsc(Nc2cnc(C(F)(F)F)cn2)c1C(=O)Nc1ccc(OCCNCCC(F)(F)F)nc1 [Example 323, 3-methyl-5-{[5-(trifluoromethyl)pyrazin-2-yl]amino}-N-(6-{2-[(3,3,3-trifluoropropyl)amino]ethoxy}pyridin-3-yl)-1,2-thiazole-4-carboxamide]"
24,5.89,"Cc1nsc(Nc2cnc(C(F)(F)F)cn2)c1C(=O)Nc1ccc(OC2CCCN(CCF)C2)nc1 (stereo not drawn) [Example 329, N-(6-{[1-(2-fluoroethyl)piperidin-3-yl]oxy}pyridin-3-yl)-3-methyl-5-{[5-(trifluoromethyl)pyrazin-2-yl]amino}-1,2-thiazole-4-carboxamide]"
25,6.47,Cc1nsc(Nc2cnc(C(F)(F)F)cn2)c1C(=O)Nc1ccc(O[C@H]2CCN(CC(F)F)C[C@@H]2F)nc1 [Example 362]
26,5.85,"Cc1nsc(Nc2cncc(C(F)(F)F)n2)c1C(=O)Nc1ccc(F)c(OC2CCN(CCC(F)(F)F)CC2)c1 [Example 343, N-(4-fluoro-3-{[1-(3,3,3-trifluoropropyl)piperidin-4-yl]oxy}phenyl)-3-methyl-5-{[6-(trifluoromethyl)pyrazin-2-yl]amino}-1,2-thiazole-4-carboxamide]"
27,6.35,"Cc1nsc(Nc2cnc(C(F)(F)F)cn2)c1C(=O)Nc1ccc(F)c(OCC2CCCN(CCC(F)(F)F)C2)c1 (stereo not drawn) [Example 338, N-(4-fluoro-3-{[1-(3,3,3-trifluoropropyl)piperidin-3-yl]methoxy}phenyl)-3-methyl-5-{[5-(trifluoromethyl)pyrazin-2-yl]amino}-1,2-thiazole-4-carboxamide]"
